This passage reports KI (inactivation) and kinact/KI results from paper PMC10728902, “β-L-Arabinofurano-cyclitol Aziridines Are Covalent Broad-Spectrum Inhibitors and Activity-Based Probes for Retaining β-L-Arabinofuranosidases” (ACS Chemical Biology, 2023).

One experiment deals with T1, rBtGH146 (Bacteroides thetaiotaomicron, UniProt Q8AAW3).
T1 construct: gene BT_0349; recombinant, expressed in E. coli; 92 kDa on gel; produced by published procedures
T1 sequence (Q8AAW3 1-802): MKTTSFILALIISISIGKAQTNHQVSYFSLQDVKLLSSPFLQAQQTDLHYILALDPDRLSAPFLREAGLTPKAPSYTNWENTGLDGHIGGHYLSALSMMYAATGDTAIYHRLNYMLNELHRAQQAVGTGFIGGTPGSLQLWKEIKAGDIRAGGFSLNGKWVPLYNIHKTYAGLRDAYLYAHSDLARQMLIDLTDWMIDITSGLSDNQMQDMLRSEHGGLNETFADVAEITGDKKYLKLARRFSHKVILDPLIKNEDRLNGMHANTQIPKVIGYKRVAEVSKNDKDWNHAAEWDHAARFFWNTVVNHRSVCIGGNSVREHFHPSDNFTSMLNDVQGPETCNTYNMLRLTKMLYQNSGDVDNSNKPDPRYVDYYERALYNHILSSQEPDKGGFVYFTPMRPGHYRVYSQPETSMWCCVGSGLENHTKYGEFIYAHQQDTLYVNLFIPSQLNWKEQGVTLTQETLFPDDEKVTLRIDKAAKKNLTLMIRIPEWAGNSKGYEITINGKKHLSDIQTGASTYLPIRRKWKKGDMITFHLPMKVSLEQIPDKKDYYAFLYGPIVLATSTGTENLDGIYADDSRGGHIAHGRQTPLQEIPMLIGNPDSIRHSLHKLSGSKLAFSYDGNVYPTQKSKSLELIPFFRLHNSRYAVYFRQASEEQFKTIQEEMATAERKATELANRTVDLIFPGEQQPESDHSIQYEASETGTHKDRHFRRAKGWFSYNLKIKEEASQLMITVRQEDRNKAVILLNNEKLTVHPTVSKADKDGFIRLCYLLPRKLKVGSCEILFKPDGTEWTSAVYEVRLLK
Briefly: inactivation kinetics, residual hydrolysis of 4-nitrophenyl beta-L-arabinofuranoside, A405. The class given is biochemical. The source says: inactivation kinetics, residual hydrolysis of 4-nitrophenyl beta-L-arabinofuranoside, A405 on rBtGH146

The target of the next experiment is T2, rHypBA1 (Bifidobacterium longum, UniProt E8MGH8).
T2 construct: gene hypBA1; recombinant; 74 kDa; produced by published procedures
T2 sequence (E8MGH8 1-658): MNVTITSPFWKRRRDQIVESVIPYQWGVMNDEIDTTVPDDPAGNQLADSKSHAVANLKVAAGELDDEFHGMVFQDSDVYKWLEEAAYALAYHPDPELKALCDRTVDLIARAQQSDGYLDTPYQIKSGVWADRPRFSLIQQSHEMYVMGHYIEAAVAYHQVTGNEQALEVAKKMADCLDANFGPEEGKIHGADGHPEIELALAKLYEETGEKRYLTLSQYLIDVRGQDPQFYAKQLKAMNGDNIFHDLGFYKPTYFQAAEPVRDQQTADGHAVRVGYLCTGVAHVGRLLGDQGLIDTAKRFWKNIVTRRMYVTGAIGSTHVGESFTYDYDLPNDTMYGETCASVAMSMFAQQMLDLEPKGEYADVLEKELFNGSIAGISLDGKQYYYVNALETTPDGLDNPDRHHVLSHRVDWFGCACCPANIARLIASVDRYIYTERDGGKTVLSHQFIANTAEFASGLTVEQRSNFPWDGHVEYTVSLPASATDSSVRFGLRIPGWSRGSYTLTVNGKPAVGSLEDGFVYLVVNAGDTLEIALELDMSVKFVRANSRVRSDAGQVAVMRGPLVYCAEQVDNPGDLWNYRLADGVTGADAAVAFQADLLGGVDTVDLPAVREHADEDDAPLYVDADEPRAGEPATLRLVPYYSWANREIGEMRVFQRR
The description is as above. The class given is biochemical. The source says: inactivation kinetics, residual hydrolysis of 4-nitrophenyl beta-L-arabinofuranoside, A405 on rHypBA1

[1] abbreviates: read-out: rBtGH146 / KI, covalent, time-dependent, pH 7.5 HEPES, 200 mM NaCl, 1 mM DTT, 37 °C.

Like-named read-outs stand apart in the source and are kept apart here.

The term kinact/KI denotes the second-order rate constant of inactivation.

As for `OC[C@H]1[C@H](O)[C@@H](O)[C@H]2N[C@@H]12` [compound 2, β-L-arabinofuranosyl cyclophellitol aziridine], the KI (inactivation) at rBtGH146 (covalent, time-dependent, pH 7.5 HEPES, 200 mM NaCl, 1 mM DTT, 37 °C, read-out: rBtGH146 / KI) was found to be 350 ± 40 µM. Further, the kinact/KI at rHypBA1 is > 4200 M⁻¹ s⁻¹.
For the compound `NCCCCCCCCN1[C@@H]2[C@H](O)[C@@H](O)[C@H](CO)[C@@H]21` (stereo partly drawn) [compound 7, aziridine 7], the KI (inactivation) at rBtGH146 (setting [1]) turned out to be 190 ± 20 µM; at rHypBA1 (read-out: rHypBA1 / KI, covalent, time-dependent, pH 4.5 acetate, 1 mM DTT, 37 °C), 280 ± 90 µM.
As to `CN1C(=CC=CC=CC2=[N+](CCCCCC(=O)NCCCCCCCCOC[C@H]3[C@H](O)[C@@H](O)[C@H]4O[C@@H]34)c3ccccc3C2(C)C)C(C)(C)c2ccccc21` [compound 4, Cy5-tagged epoxide ABP 4], the KI (inactivation) at rBtGH146 (setting [1]) came to 140 ± 10 µM. Further, the kinact/KI at rHypBA1 was < 0.1 M⁻¹ s⁻¹.
